Measurements published in patent US11931412B2, “JAK1 inhibitors and uses thereof” (Washington University, priority 2016, dated 2024).
“Also recorded” adds a separate entry of the source.

How the values were obtained:
[1] = test system: wild type (WT) mice; assay: Topical MC903 treatment versus vehicle (AD-like inflammation and itch); format: in vivo, mouse; settings: daily topical to ears, compared to vehicle (EtOH)
Experimental: (§1) For induction of AD-like inflammation and itch, mice were topically treated once daily with 2 nmol of MC903 (calcipotriol, Tocris Bioscience) for 7 days or 1 nmol of MC903 for 12 days on both ears in 20 μL of ethanol (vehicle) as previously described (Kim et al., 2013a, 2014, Siracusa et al., 2011, 2013b). Ear thickness measurements were performed daily with dial calipers as previously described (Kim et al., 2013a, 2014). At the end of the MC903 treatment, murine ear skin tissues were fixed in 4% paraformaldehyde (PFA) and embedded in paraffin before sectioning and staining with Hematoxylin & Eosin (H&E). Histology score was determined by the following formula using ImageJ analysis software (NIH) as previously described: (total number of lymphocytes per high power field (HPF)+thickness of the epidermis measured in microns from the basement membrane to the top of the stratum corneum) divided by 100 (Kim et al., 2014). All images were captured with a NanoZoomer 2.0-HT System (Hamamatsu). Murine disease and behavioral assessment data (below) were derived from two to three independent experiments. For behavioral assessments, mice were first acclimated to the recording room and behavior chambers at least one day prior to testing. On the day of testing, mice were again acclimated to the recording room and behavior chambers and then video recorded. The video recordings were then manually scored for number of scratching bouts per 30 minute block. One scratching bout was defined as one instance of lifting the hind paw from the floor, scratching, and returning the paw to the floor or placing the paw in the animal's mouth. All behavioral tests were performed on sex- and age-matched adult mice (8-12 weeks old).

[2] = test system: mouse DRG neurons; assay: Ratiometric calcium imaging of cultured murine DRG neurons; format: cell-based; settings: for responsive neurons as a percentage of total mouse DRG neurons: cytokines 300 nM, histamine 50 μM, responsive = change in fluorescence ratio >10% of baseline; for calcium response of DRG neurons to stimulation: ex vivo stimulation, recombinant murine cytokine 300 nM; for cytokine-responsive neurons that also responded to IL-31 or histamine: serial stimulation with the cytokine, then IL-31 and histamine
Experimental: Murine DRG neurons were isolated and cultured using a previously published protocol with slight modification (Malin et al., 2007). Briefly, laminectomies were performed on mice and bilateral DRG were removed. After removal of connective tissues, DRG were transferred to 1 mL Ca^2+/Mg^2+-free Hank's Balanced Salt Solution (HBSS) containing 1 μL saturated NaHCO3, 0.35 mg L-cysteine, and 20 U papain (Worthington) and incubated at 37° C. for 20 min. The suspension was centrifuged, and the supernatant was removed and replaced with 1 mL Ca^2+/Mg^2+-free HBSS containing 3.75 mg collagenase type II (Worthington) and 7.5 mg dispase (Worthington) and incubated at 37° C. for 20 min. After digestion, neurons were gently triturated, pelleted, and then resuspended in Neurobasal-A medium containing 2% B-27 supplement (Gibco), 100 U/mL penicillin plus 100 μg/mL streptomycin (Sigma), 100 ng/mL nerve growth factor (Sigma), and 10% heat-inactivated FBS (Sigma). Neurons were then plated on a 12 mm glass coverslip pre-coated with poly-L-lysine (Sigma) and laminin (Sigma) and cultured under a humidified atmosphere of 5% CO2 at 37° C. for 18-24 hours before use.
Cultured DRG neurons were loaded with 4 μM Fura-2 AM (Life Technologies) in overnight DRG culture medium at 37° C. for 45 minutes. Cells were then washed three times and incubated in calcium imaging buffer (130 mM NaCl, 3 mM KCl, 2.5 mM CaCl2, 0.6 mM MgCl2, 10 mM HEPES, 10 mM glucose, 1.2 mM NaHCO3, pH 7.45) at room temperature for 30 minutes before use. All recombinant murine cytokines (IL-4, IL-5, and IL-13: Peprotech, IL-31: Bristol-Myers Squibb) were used at 300 nM, while histamine (Sigma) and capsaicin (Sigma) were used at 50 μM and 300 nM, respectively. Only sensory neurons that responded to a final challenge of 100 mM KCl were used in analyses. Fluorescence was recorded at 340 nm and 380 nm excitation wavelengths (F340, F380) using an inverted Nikon Ti-E microscope with NIS-Elements imaging software (Nikon Instruments). Fluorescence ratios (F340/F380) were normalized to baseline and used to reflect changes in intracellular Ca^2+ and neuronal activation upon stimulation. […] Data were derived from two to three independent experiments.

[3] = test system: CIP patient (Case 2); assay: Clinical history of CIP patient Case 2 (prior treatment); format: in vivo, human; settings: course of oral prednisone prescribed for polymyalgia rheumatica
Experimental: This example describes four elderly CIP patients with evidence of marked immune dysregulation after exclusion of other cutaneous and systemic causes of pruritus.
TABLE 2 Legend: (a) Average and peak Numerical Rating Scale (NRS) itch scores at the time of presentation to our clinic are noted, respectively. (b) A thorough workup was performed to establish the diagnosis of CIP by exclusion of other cutaneous and systemic causes of pruritus, including psychiatric and neurologic conditions, renal failure, biliary dysfunction, thyroid abnormalities, HIV/AIDS, hepatitis B, and hepatitis C. […] (d) Outside of two episodes of septic arthritis arising from knee replacement surgery, the patient had no history of persistent or recurrent infections, autoimmunity, or malignancy.

[4] = test system: MC903-treated WT mice; assay: Pharmacologic JAK inhibition in MC903-induced AD-associated itch model; format: in vivo, mouse
Experimental: as §1, with “old). Stock ruxolitinib (Selleck Chemicals) solutions were prepared in DMSO (Sigma) per the manufacturer's instructions. For systemic treatments, mice treated twice daily with 100 μg ruxolitinib diluted in 100 μl PBS by intraperitoneal (i.p.) injection. For intrathecal (i.t.) ruxolitinib treatments, mice were injected 24 hours before behavioral assays with 10 μg ruxolitinib diluted in 10 μl PBS. Control mice were injected with appropriate vehicle controls (DMSO in PBS) of equivalent volumes.” for “old).”

[5] = test system: AD patients; settings: cited from earlier work
[6] = test system: patients with CIP; assay: NRS itch scoring of CIP patients under treatment
[7] = i.p. 100 μg twice daily during MC903 treatment, Day 7

For C=C1/C(=C\C=C2/CCC[C@]3(C)[C@@H]([C@H](C)/C=C/[C@@H](O)C4CC4)CC[C@@H]23)C[C@@H](O)C[C@@H]1O [MC903, calcipotriol], the “histologic score of inflammation” value [1] was “higher”, the “itch phenotype by scratching bouts over time” value [1] was “marked chronic itch phenotype” and the “skin inflammation measured by ear skin thickening and histologic features” value [1] was “robust skin inflammation”.

In the case of NCCc1c[nH]cn1 [histamine], the “responsive neurons as a percentage of total mouse DRG neurons” value (“responsive neurons as a percentage” for short) [2] is reported as about 25%.

In the case of C[C@]12C=CC(=O)C=C1CC[C@@H]1[C@@H]2C(=O)C[C@@]2(C)[C@H]1CC[C@]2(O)C(=O)CO [prednisone], the muscle weakness [3] is reported as “improved” and the pruritus [3] is reported as “did not resolve”.

With N#CC[C@H](C1CCCC1)n1cc(-c2ncnc3[nH]ccc23)cn1 [ruxolitinib] the ear skin thickening [4, 7] was “statistically significant, but only slight, reduction”, the “histologic parameters of disease” value [4, 7] was “statistically significant, but only slight, reduction” and the scratching bouts [4, 7] was “significantly reduced”. The “peripheral skin inflammation (ear thickness, histopathology, histology score)” value ([4]; single intrathecal (i.t.) injection 10 μg) was “no effect” and the scratching bouts ([4]; single intrathecal (i.t.) injection 10 μg, 24 hours before behavioral assay) was “marked reduction”.

For C[C@@H]1CCN(C(=O)CC#N)C[C@@H]1N(C)c1ncnc2[nH]ccc12 [tofacitinib], the “itch symptoms in AD patients” value ([5]; pilot studies and Phase II clinical trials) is listed as “rapid and significant reduction”, the “NRS itch score / itch symptoms” value ([6]; CIP patients (N=5), 5 mg by mouth twice daily, one month) is listed as “marked improvement; also recorded: improved significantly; also recorded: dramatic improvement” and the “daily itch scores (NRS), single subject” value ([6]; one CIP subject over 70 days, cyclosporine alone, then switched to JAK inhibitor) is listed as “significant improvement”.

In the case of “IL-4: recombinant murine IL-4 (Peprotech)”, the “responsive neurons as a percentage” value [2] is reported as 4.1±0.5%, the “calcium response of DRG neurons to stimulation” value (“calcium response of DRG neurons” for short) [2] is reported as “rapid rise of intracellular calcium in a subset of neurons” and the “cytokine-responsive neurons that also responded to IL-31 or histamine” value [2] is reported as 88.9%.

In the case of “dupilumab: an anti-IL-4Rα monoclonal antibody”, the “disease and itch severity in AD patients” value ([5]; Phase II and III clinical trials) is given as “remarkable improvement”.

B1: IL-13: recombinant murine IL-13 (Peprotech) (protein, UniProt P20109 19-131, looked up)
Interleukin-13: APGPVPRSVSLPLTLKELIEELSNITQDQTPLCNGSMVWSVDLAAGGFCVALDSLTNISNCNAIYRTQRILHGLCNRKAPTTVSSLPDTKIEVAHFITKLLSYTKQLFRHGPF
With B1 the “responsive neurons as a percentage” value [2] was 3.3±0.8%, the “calcium response of DRG neurons” value [2] was “rapid rise of intracellular calcium in a subset of neurons” and the “cytokine-responsive neurons that also responded to IL-31 or histamine” value [2] was 75.0%.

B2: IL-31: recombinant murine IL-31 (Bristol-Myers Squibb), known cytokine pruritogen (protein, UniProt Q6EAL8 24-163, looked up)
Interleukin-31: TCSLSFGAPISKEDLRTTIDLLKQESQDLYNNYSIKQASGMSADESIQLPCFSLDREALTNISVIIAHLEKVKVLSENTVDTSWVIRWLTNISCFNPLNLNISVPGNTDESYDCKVFVLTVLKQFSNCMAELQAKDNTTC
With B2 the “responsive neurons as a percentage” value [2] was “approximately 5%”.

B3: IL-5: recombinant murine IL-5 (Peprotech) (protein, UniProt P04401 21-133, looked up)
Interleukin-5: MEIPMSTVVKETLTQLSAHRALLTSNETMRLPVPTHKNHQLCIGEIFQGLDILKNQTVRGGTVEMLFQNLSLIKKYIDRQKEKCGEERRRTRQFLDYLQEFLGVMSTEWAMEG
In the case of B3, the “calcium response of DRG neurons” value [2] is reported as “no responses; also recorded: does not activate”.
